The results in this text go back to US6002002A, “Anti-ischaemic hydroxylamine derivatives and pharmaceutical compositions” (Biorex Research & Development Co., priority 1995, dated 1999).

For assay [1], the system named is isolated rabbit thoracal aorta. The assay can be described thus: in vitro vasorelaxation on isolated rabbit thoracal aorta. The assay is classed as cell-based. As to conditions: Oryctolagus cuniculus. The protocol:
The vasorelaxant effect of the compounds of the invention was tested in vitro on isolated rabbit thoracal aorta according to Am. J. Physiol. 257:, 1327-1333 (1989).

In assay [2] the test system is anaesthetized rats. The assay can be described thus: Reperfusion-induced arrhytmia (ventricular tachycardia and fibrillation) after LAD coronary occlusion in anaesthetized rats; survival. It counts as in vivo. As to conditions: rat, 1 mg/kg i.v. 5 minutes before pressing LAD coronary artery; 5 min ischaemia, 10 min reperfusion. The protocol: The reperfusion-induced arrhytmia (ventricular tachycardia, KT and ventricuiar fibrillation, KF) was tested on anaesthetized rats. Myocardial ischaemia was induced by pressing the coronary artery for 5 minutes followed by 10 minutes reperfusion of the heart. The ECG was permanently monitored and the change of mean period of KT and KF by the effect of active materials was measured in the first 3 minutes of reperfusion. Survival was also monitored. The compounds were administered i.v. 5 minutes before pressing the LAD coronary artery in a dosis of 1 mg/kg.
Experimental results obtained by administering some representative compounds of the invention are listed below: […]

For assay [3], the system named is platelet aggregation. The assay can be described thus: Inhibition of ADP-induced platelet aggregation in platelet-rich preparates from human venal blood. As to conditions: concentration inhibiting the aggregation in 50%, read-out: antiaggregation EC50. It counts as cell-based. The protocol: To the samples sodium citrate was added and 10 minutes later centrifuged with 1000 rpm.

pEC50: −log10 of the molar value.

What is called pEC50 is the negative decadic logarithm of the EC50, by convention in mol/L. In turn, `CC(C)COCC(CN(Cc1ccccc1)c1ccccc1)N1CCCC1` (stereo not shown) [Bepridyl, reference compound] showed a pEC50 in assay [1] of 4.08. For `CC(C)(C)N(CC(O)CONC(=O)NC1CCCCC1)C(=O)NC1CCCCC1` (stereo not shown) [Example 15, N-cyclohexyl-N'-{2-hydroxy-3-[N-(cyclohexyl-carbamoyl)-N-tert-butylamino]-propoxy}-urea], in assay [2], the Survival % is listed as 60%.

`CCCNC(=O)NOCC(O)CN1CCCCC1` (stereo not shown) [Example 4, N-n-propyl-N'-(2-hydroxy-3-piperidino-propoxy)-urea] gave a Survival % in assay [2] of 67%. On to `CCOC(=O)[N-]c1c[n+](N2CCOCC2)no1` [Molsidomin, reference compound], for which the pEC50 in assay [3] is 2.82.

As for `O=C(NOCC(O)CN1CCCCC1)Nc1cccc([N+](=O)[O-])c1` (stereo not shown) [Example 19, N-(3-nitrophenyl)-N'-(2-hydroxy-3-piperidino-propoxy)-urea], the values for the pEC50 in assay [3] and in assay [1] were 3.47 and 4.42, respectively.

Take `CCCCCCNC(=O)NOCC(O)CN1CCCCC1` (stereo not shown) [Example 6, N-n-hexyl-N'-(2-hydroxy-3-piperidino-propoxy)-urea]: the pEC50 was 2.82 in assay [3] and 3.72 in assay [1]. This compound returned a Survival % in assay [2] of 100%. As for `O=C(NOCC(O)CN1CCCCC1)NC1CCCCC1` (stereo not shown) [Example 5, N-cyclohexyl-N'-(2-hydroxy-3-piperidino-propoxy)-urea], the Survival % in assay [2] came out at 67%. `CCCCCCNC(=O)NOCCCN1CCCCC1` [Example 16, N-n-hexyl-N'-(3-piperidino-propoxy)-urea]: the pEC50 in assay [3] was 3.15; in assay [1], 3.35. The compound also gave a Survival % in assay [2] of 83%. The like results for `CCCCCCCNC(=O)NOCC(O)CN1CCCCC1` (stereo not shown) [Example 23, N-heptyl-N'-(2-hydroxy-3-piperidino-propoxy)-urea] were, in that order, 3.37, 3.72 and 80%. The like results for `O=C(NOCC(O)CN1CCCCC1)Nc1cccc(Cl)c1` (stereo not shown) [Example 7, N-(3-chlorophenyl)-N'-(2-hydroxy-3-piperidino-propoxy)-urea] were, in that order, 3.05, 4.00 and 86%.
